Results taken from patent US20220047569A1, “METHOD AND COMPOUND FOR USE, IN TREATING AND/OR PREVENTING NETOSIS” (Jubilant EpiPad LLC, priority 2020, published 2022).

Test system: Histone H3 Citrullination in Neutrophils
Assay: Citrullination ELISA (Citrullinated Histone H3) in calcium ionophore stimulated neutrophils
Format: cell-based
Conditions: Neutrophil; human neutrophils, 25 μM calcium ionophore, CitH3 ELISA
Protocol: Neutrophils were isolated according to the EasySep Direct Human Neutrophil Isolation Kit. In short, 50 mL of blood sample was drawn in a vacutainer containing K2EDTA from a healthy donor. To the whole blood, the isolation cocktail of 50 μL/mL was added. Then, in the next step 50 μL/mL of RapidSpheres™ was added to the sample. The sample was mixed evenly with the pipette and incubated for 10 minutes at room temperature. After incubation, PBS containing 1 mM EDTA was added at the ratio of 1:1 to the blood. Then the sample tube was incubated for 10 minutes. The enriched cell suspension was transferred into a new tube and RapidSpheres™ were added at 50 μL/mL to this suspension, mixed and incubated for 10 minutes at room temperature. At this step, the enriched cell suspension was carefully collected as a clear fraction into a fresh tube. Then, previous tube was replaced with the fresh tube containing enriched cell suspension. After the final separation, the clear solution of enriched cell suspension was carefully transferred to fresh tube which was ready to use for the experiment. These cells were then subjected to wash twice with plain RPMI 1640 media without Fetal Bovine Serum (FBS) and centrifuged at 1500 rpm for 5 minutes at room temperature. Cell counts were performed on each sample by Invitrogen cell counter. After the cell count, cell density was adjusted according to the experiment and re-suspended in complete RPMI media containing RPMI1640, 2% BSA and 1 mM CaCl2.
Freshly isolated neutrophils from human donor were seeded at a density of 0.5×10^6 cells in 400 μL cell suspension/well in a 24-well plate and cells were pre-incubated with the compound for 30 minutes by adding 50 μL of the 10× concentration to achieve the final 1× concentration of compound (10 μM, 1 μM and 0.1 μM). 1% DMSO was added in control wells. Then, the cells were stimulated in the presence and absence of calcium ionophore by adding 50 μL/well to achieve the final concentration of 25 μM. Upon incubation for 30 minutes with calcium ionophore, S7 nuclease was added to the wells and incubated for 10 minutes to disrupt NET DNA. Following incubation, 10 μL of 1 mM EDTA was added to inactivate nuclease. Cells were scrapped gently and transferred to the tubes, followed by centrifugation at 1500 rpm for 5 minutes. After centrifugation, supernatant was discarded, and 200 μL of lysis buffer containing PBS and 1× Protease inhibitor was added to the tubes. The obtained lysis was then subjected to mechanical shearing using Geno grinder by spin the plate at 2500 rpm for 10 minutes, followed by collection of supernatant and stored at −20° C. or immediately used for ELISA.
ELISA was performed as per Citrullinated Histone H3 ELISA Kit. All the buffer components from the kit were dissolved according to the manufactures protocol. ELISA Buffer Concentrate (10×) (Item No. 400060) and Wash Buffer Concentrate (400×) (Item No. 400060) along with polysorbate 20 (2000×) (Item No. 400035) was diluted to 1× with milliQ water. The standard for use in the ELISA was prepared as follows: • Obtain eight clean test tubes and label them, #1 through #8. Aliquot 4.9 mL of ELISA Buffer into tube #1. • Aliquot 500 μL of ELISA Buffer into the tubes #2-8. […] This tube is considered as blank, the lowest point on the standard curve.
100 μL of standards or diluted sample was added to the appropriate wells on the 96-well plate. Plates were covered with 96-well cover sheet and incubated for two hours at room temperature on an orbital shaker. The samples and standard were removed from the wells and washed four times with Wash Buffer. After the last wash, Anti-Histone H3 HRP Conjugate (Item No. 501441) (10×) stock solution was diluted in 1×ELISA buffer and 100 μL of the HRP Conjugate working solution was added to each well of the plate and incubated for one hour at room temperature on an orbital shaker. […]

SMILES | IC50 [nM]
Cc1cccc2cc(-c3nc4cc(C(=O)N5CCC[C@@H](N)C5)ccn4c3C)n(CC3CC3)c12 [Compound 30, (R)-(3-aminopiperidin-1-yl)(2-(1-(cyclopropylmethyl)-7-methyl-1H-indol-2-yl)-3-methylimidazo[1,2-a]pyridin-7-yl)methanone] | 100 to 1000
Cc1c(-c2cc3cc(F)ccc3n2Cc2ccc(F)cc2)nc2cc(C(=O)N3CCC[C@@H](N)C3)ccn12 [Compound 76, (R)-(3-aminopiperidin-1-yl)(2-(5-fluoro-1-(4-fluorobenzyl)-1H-indol-2-yl)-3-methylimidazo[1,2-a]pyridin-7-yl)methanone] | > 1000
COCCn1c(-c2nc3cc(C(=O)N4CCC[C@@H](N)C4)cc4c3n2CCO4)cc2ccccc21 [Compound 106, (R)-(3-aminopiperidin-1-yl)(2-(1-(2-methoxyethyl)-1H-indol-2-yl)-3,4-dihydro-5-oxa-1,2a-diazaacenaphthylen-7-yl)methanone] | 100 to 1000
Cc1c(-c2cc3ccccc3n2Cc2ncccc2F)nc2cc(C(=O)N3CCC[C@@H](N)C3)ccn12 [Compound 62, (R)-(3-aminopiperidin-1-yl)(2-(1-((3-fluoropyridin-2-yl)methyl)-1H-indol-2-yl)-3-methylimidazo[1,2-a]pyridin-7-yl)methanone] | 100 to 1000
COc1ccc2cc(-c3nc4cc(C(=O)N5CCC[C@@H](N)C5)cc5c4n3CCN5)n(CC3CC3)c2c1 [Compound 159, (R)-(3-aminopiperidin-1-yl)(2-(1-(cyclopropylmethyl)-6-methoxy-1H-indol-2-yl)-5,6-dihydro-4H-imidazo[1,5,4-de]quinoxalin-8-yl)methanone] | 100 to 1000
Cc1c(-c2cc3ccccc3n2Cc2ccc(CO)cc2)nc2cc(C(=O)N3CCC[C@@H](N)C3)ccn12 [Compound 81, (R)-(3-aminopiperidin-1-yl)(2-(1-(4-(hydroxymethyl)benzyl)-1H-indol-2-yl)-3-methylimidazo[1,2-a]pyridin-7-yl)methanone] | > 1000
COc1ccc(Cn2c(-c3nc4cc(C(=O)N5CCC[C@@H](N)C5)cc5c4n3CCO5)cc3cc(F)ccc32)cc1 [Compound 132, (R)-(3-aminopiperidin-1-yl)(2-(5-fluoro-1-(4-methoxybenzyl)-1H-indol-2-yl)-3,4-dihydro-5-oxa-1,2a-diazaacenaphthylen-7-yl)methanone] | > 1000
Cc1cccc2cc(-c3nc4cc(C(=O)N5CCC[C@@H](N)C5)cc5c4n3CCN5)n(CC3CC3)c12 [Compound 170, (R)-(3-aminopiperidin-1-yl)(2-(1-(cyclopropylmethyl)-7-methyl-1H-indol-2-yl)-5,6-dihydro-4H-imidazo[1,5,4-de]quinoxalin-8-yl)methanone] | 100 to 1000
Cc1ncc(Cn2c(-c3nc4cc(C(=O)N5CCC[C@@H](N)C5)ccn4c3C)cc3ccccc32)s1 [Compound 49, (R)-(3-aminopiperidin-1-yl)(3-methyl-2-(1-((2-methylthiazol-5-yl)methyl)-1H-indol-2-yl)imidazo[1,2-a]pyridin-7-yl)methanone] | < 100
CCn1c(-c2nc3cc(C(=O)N4CCC[C@@H](N)C4)ccn3c2C)cc2ccccc21 [Compound 4, (R)-(3-aminopiperidin-1-yl)(2-(1-ethyl-1H-indol-2-yl)-3-methylimidazo[1,2-a]pyridin-7-yl)methanone] | < 100
N[C@@H]1CCCN(C(=O)c2cc3c4c(c2)nc(-c2cc5cc(/C=C/c6ccccc6)ccc5n2CC2CC2)n4CCO3)C1 [Compound 144, (R,E)-(3-aminopiperidin-1-yl)(2-(1-(cyclopropylmethyl)-5-styryl-1H-indol-2-yl)-3,4-dihydro-5-oxa-1,2a-diazaacenaphthylen-7-yl)methanone] | < 100
N[C@@H]1CCCN(C(=O)c2cc3c4c(c2)nc(-c2cc5ccc(CO)cc5n2CC2CC2)n4CCO3)C1 [Compound 147, (R)-(3-aminopiperidin-1-yl)(2-(1-(cyclopropylmethyl)-6-(hydroxymethyl)-1H-indol-2-yl)-3,4-dihydro-5-oxa-1,2a-diazaacenaphthylen-7-yl) methanone] | 100 to 1000
